From ChEMBL document CHEMBL1155434, “Discovery of a new series of 5-HT1A receptor agonists” (Bioorg Med Chem Lett, 2010)

Tests used:
[1] = target: T1, 5-hydroxytryptamine receptor 1A (Homo sapiens) (UniProt P08908); experiment: Agonist activity at human recombinant 5HT1A receptor expressed in human HeLa cells by [35S]GTPgammaS binding assay relative to serotonin; type: functional, cell-based
T1 sequence (whole entry): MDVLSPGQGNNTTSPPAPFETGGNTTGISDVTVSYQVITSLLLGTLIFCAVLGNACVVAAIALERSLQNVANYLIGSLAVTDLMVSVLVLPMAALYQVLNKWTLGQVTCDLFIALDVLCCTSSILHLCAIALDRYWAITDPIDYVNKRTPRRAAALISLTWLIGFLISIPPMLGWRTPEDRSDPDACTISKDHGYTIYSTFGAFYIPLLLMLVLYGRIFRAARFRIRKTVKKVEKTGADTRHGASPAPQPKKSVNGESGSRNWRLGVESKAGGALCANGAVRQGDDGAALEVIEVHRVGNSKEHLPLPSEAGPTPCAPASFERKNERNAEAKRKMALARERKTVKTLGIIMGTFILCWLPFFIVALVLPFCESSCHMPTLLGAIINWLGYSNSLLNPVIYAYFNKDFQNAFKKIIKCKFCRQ

[2] = target: T2, Alpha-1D adrenergic receptor (Homo sapiens, UniProt P25100); experiment: Displacement of [3H]prazosin from human Alpha-1D adrenergic receptor expressed in CHO cells; type: cell-based
T2 sequence (P25100 whole entry): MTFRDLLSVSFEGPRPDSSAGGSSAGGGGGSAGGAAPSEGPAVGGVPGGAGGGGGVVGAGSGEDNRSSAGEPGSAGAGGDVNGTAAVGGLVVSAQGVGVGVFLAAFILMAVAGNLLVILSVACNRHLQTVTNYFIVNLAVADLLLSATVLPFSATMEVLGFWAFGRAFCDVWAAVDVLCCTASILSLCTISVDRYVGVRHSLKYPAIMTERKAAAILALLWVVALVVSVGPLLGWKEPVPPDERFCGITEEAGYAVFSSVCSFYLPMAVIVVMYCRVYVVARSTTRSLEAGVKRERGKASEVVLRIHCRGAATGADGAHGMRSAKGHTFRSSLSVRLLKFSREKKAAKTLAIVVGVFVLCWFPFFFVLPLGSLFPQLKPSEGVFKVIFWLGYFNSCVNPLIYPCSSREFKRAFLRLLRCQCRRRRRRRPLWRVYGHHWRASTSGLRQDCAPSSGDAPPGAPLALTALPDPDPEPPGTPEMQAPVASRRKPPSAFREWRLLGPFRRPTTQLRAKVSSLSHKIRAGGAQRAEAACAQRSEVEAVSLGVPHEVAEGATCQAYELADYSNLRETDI

Homo sapiens = organism: Homo sapiens; experiment: Selectivity ratio of pKi for human 5-HT1A receptor to pKi for human alpha1 adrenergic receptor
[3] = target: T3, Alpha-1A adrenergic receptor (Homo sapiens, UniProt P35348); experiment: Displacement of [3H]prazosin from human alpha1A adrenergic receptor expressed in CHO cells; type: cell-based
T3 sequence (P35348 whole entry): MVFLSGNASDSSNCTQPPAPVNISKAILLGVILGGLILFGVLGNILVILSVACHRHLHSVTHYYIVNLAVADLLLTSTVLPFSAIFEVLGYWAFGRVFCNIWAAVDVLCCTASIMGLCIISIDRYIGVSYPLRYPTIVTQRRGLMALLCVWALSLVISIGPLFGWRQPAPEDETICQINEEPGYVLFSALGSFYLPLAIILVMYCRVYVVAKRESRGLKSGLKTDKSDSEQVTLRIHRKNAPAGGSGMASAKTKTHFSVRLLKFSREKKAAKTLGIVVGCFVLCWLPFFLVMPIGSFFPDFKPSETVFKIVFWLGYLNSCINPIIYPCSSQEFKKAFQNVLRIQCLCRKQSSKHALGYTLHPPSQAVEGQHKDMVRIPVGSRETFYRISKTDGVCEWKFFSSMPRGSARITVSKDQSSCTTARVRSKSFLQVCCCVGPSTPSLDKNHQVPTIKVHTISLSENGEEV

[4] = target: T4, Alpha-1B adrenergic receptor (Homo sapiens, UniProt P35368); experiment: Displacement of [3H]prazosin from human Alpha-1B adrenergic receptor expressed in CHO cells; type: cell-based
T4 sequence (P35368 whole entry): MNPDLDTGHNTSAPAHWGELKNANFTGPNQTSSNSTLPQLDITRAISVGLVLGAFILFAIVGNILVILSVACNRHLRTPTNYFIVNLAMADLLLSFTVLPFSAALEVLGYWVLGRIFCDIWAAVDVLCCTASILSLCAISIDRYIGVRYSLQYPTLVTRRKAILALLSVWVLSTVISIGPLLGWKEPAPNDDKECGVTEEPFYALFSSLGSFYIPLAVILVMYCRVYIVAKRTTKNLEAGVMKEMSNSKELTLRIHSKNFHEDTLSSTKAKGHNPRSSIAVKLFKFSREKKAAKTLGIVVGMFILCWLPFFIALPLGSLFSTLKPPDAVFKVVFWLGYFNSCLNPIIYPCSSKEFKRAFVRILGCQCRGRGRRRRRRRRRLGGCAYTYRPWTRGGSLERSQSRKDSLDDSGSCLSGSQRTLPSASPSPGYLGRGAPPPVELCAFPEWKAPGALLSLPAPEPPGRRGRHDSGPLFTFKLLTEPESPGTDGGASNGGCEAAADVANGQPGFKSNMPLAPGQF

Vas deferens = experiment: Inhibition of noradrenaline-induced contraction in rat prostatic vas deferens; type: functional
[5] = target: T1, 5-hydroxytryptamine receptor 1A (Homo sapiens); experiment: Agonist activity at human recombinant 5HT1A receptor expressed in human HeLa cells by [35S]GTPgammaS binding assay; type: functional, cell-based
Spleen = experiment: Inhibition of noradrenaline-induced contraction in rat spleen; type: functional
[6] = target: T5, 5-hydroxytryptamine receptor 1A (Homo sapiens, UniProt P08908); experiment: Displacement of [3H]8-OH-DPAT from human 5-HT1A receptor expressed in human HeLa cells; type: cell-based
T5 sequence (P08908 whole entry): T1 sequence (whole entry)

Thoracic aorta = experiment: Inhibition of noradrenaline-induced contraction in rat thoracic aorta; type: functional

| Emax [1] [%] | Ki [2] [nM] | Ratio pKi (Homo sapiens) | Ki [3] [nM] | Ki [4] [nM] | pD2 [5] | Ki [6] [nM] | SMILES | pKb (Vas deferens) | pKb (Spleen) | pKb (Thoracic aorta) |
| --- | --- | --- | --- | --- | --- | --- | --- | --- | --- | --- |
| 20 | 20.4 | 158 | 35.5 | 117 | 7.76 | 0.129 | COc1ccccc1OCCNCC1CSC(c2ccccc2)(c2ccccc2)S1 (racemic) | 5.8 | 5.87 | 7.5 |
| 26 |  |  |  |  | 9.27 |  | COc1ccccc1N1CCN(CCN2C(=O)CC3(CCCC3)CC2=O)CC1 [BMY-7378] |  | 7.48 |  |
| 32 |  | 15 | 19.5 | 46.8 | 7.36 | 0.603 | COc1ccccc1OCCNCC1COC(c2ccccc2)(c2ccccc2)O1 (racemic) | 7.53 | 7.36 | 8.65 |
| 24 |  | 3 |  |  | 8.8 | 3.55 | c1ccc(OCCNCC2COC(c3ccccc3)(c3ccccc3)O2)cc1 (racemic) | 6.16 | 5.86 | 8.37 |
| 25 | 6.31 | 1 | 2.09 | 20 | 9.08 | 1.7 | CC(C)Oc1ccccc1OCCNCC1COC(c2ccccc2)(c2ccccc2)O1 (racemic) | 7.25 | 7.25 | 7.59 |
|  | > 1000 | > 35 | > 1000 | > 1000 |  | 28.8 | c1ccc(-c2cccc(OCCNCC3COC(c4ccccc4)(c4ccccc4)O3)c2)cc1 (racemic) | 5.19 | 6.21 | <5 |
|  | 355 | 11 | 85.1 | 174 |  | 7.59 | COc1cccc(OCCNCC2COC(c3ccccc3)(c3ccccc3)O2)c1OC (racemic) | 5.86 | 5.85 | 6.64 |
|  |  |  |  |  |  |  | COc1ccc(OCCNCC2COC(c3ccccc3)(c3ccccc3)O2)cc1 (racemic) | <5 | 6.25 | 6.94 |
| 14 | 57.5 | 22 | 91.2 | 58.9 | 5.97 | 2.63 | COc1cccc(OCCNCC2COC(c3ccccc3)(c3ccccc3)O2)c1 (racemic) | 5.75 | 5.79 | 6.61 |
| 14 | 50.1 | 6 | 49 | 41.7 | 5.92 | 7.94 | COc1ccccc1CCCNCC1COC(c2ccccc2)(c2ccccc2)O1 (racemic) | 5.92 | 5.97 | 6.86 |
| 76 | 6.61 | 6 | 20.9 | 100 | 8.94 | 1.02 | COc1ccccc1OCCNCC1CSC(c2ccccc2)(c2ccccc2)O1 (racemic) | 6.71 | 8.44 | 8.68 |
|  | > 1000 | 1.4 | > 1000 | 138 |  | 97.7 | COc1ccc(OCCNCC2COC(c3ccccc3)(c3ccccc3)O2)cc1OC (racemic) | 5.09 | 6.01 | 6.9 |
|  | 182 | 14 | 100 | 75.9 |  | 53.7 | COc1cccc(OC)c1OCCNCC1COC(c2ccccc2)(c2ccccc2)O1 (racemic) | 5.73 | 5.89 | 6.93 |

| SMILES | Emax [1] [%] | Ki [2] [nM] | Ratio pKi (Homo sapiens) | Ki [3] [nM] | Ki [4] [nM] | pD2 [5] | Ki [6] [nM] | pKb (Vas deferens) | pKb (Spleen) | pKb (Thoracic aorta) |
| --- | --- | --- | --- | --- | --- | --- | --- | --- | --- | --- |
| c1ccc(-c2ccccc2OCCNCC2COC(c3ccccc3)(c3ccccc3)O2)cc1 (racemic) | 73 | 331 | 151 | 490 | > 1000 | 7.82 | 2.19 | <5 | 5.47 | 6.1 |
| COc1cc(OC)cc(OCCNCC2COC(c3ccccc3)(c3ccccc3)O2)c1 (racemic) |  | > 1000 | 0.2 | 302 | 447 |  | > 1000 | 5.41 | 5.49 | 6.77 |
| CCOc1ccccc1OCCNCC1COC(c2ccccc2)(c2ccccc2)O1 (racemic) | 36 | 6.76 | 7 | 6.61 | 53.7 | 9.08 | 0.891 | 7.23 | 6.92 | 7.91 |
| c1ccc(-c2ccc(OCCNCC3COC(c4ccccc4)(c4ccccc4)O3)cc2)cc1 (racemic) |  | > 1000 |  | > 1000 | > 1000 |  | > 1000 | 5.65 | 5.84 | 5.08 |
| CCCN(CCC)C1CCc2cccc(O)c2C1 (stereo not drawn) [8-OH-DPAT] |  |  |  |  | > 1000 |  |  |  |  |  |
| Cc1ccccc1OCCNCC1COC(c2ccccc2)(c2ccccc2)O1 (racemic) |  | 25.7 | 3 | 117 | 240 |  | 8.32 | 6.02 | 5.73 | 6.77 |
